Reference: patent publication US20020055528A1, “Artemisinin analogs having antimalarial, antiproliferative, and antitumor activities and chemoselective methods of making the same” (priority 1999, published 2002)
Where two headings read alike, the source gives them in different places.

Assays:
[1] = system: K-562; test: NCI 60 cell line screen (SRB), Leukemia; type: cell-based; conditions: for Log10TGI: PG=0
[2] = system: MOLT-4; conditions: for Log10TGI: PG=0; for drug concentration for cytotoxicity (percentage growth −50): human, 48 h
Experimental: The screening assay is performed on 96-well microtitre plates. Relatively high initial inoculation densities are used, in order to permit measurement of “time-zero” values and to enhance the screen's ability to detect and provide some differentiation between antiproliferative and cytotoxic response parameters. […] The inoculated microtitre plates are pre-incubated for 24 hours at 37θC prior to drug additions. The five drug dilutions tested routinely range from 10^−4 to 10^−8 molar. Higher or lower concentration ranges may be selected on a nonroutine basis if appropriate solubility and/or prior biological information or other screening data so dictate. Duplicate wells are prepared for all concentrations, (concentration is often denoted by placing brackets around a number); “time-zero” and “no drug” controls are also provided for each test. The minimum amount of compound required for a one-time evaluation in the routine screen can be calculated from the knowledge that each test requires a total of approximately 40 ml (0.04 liter) of cell culture medium containing the highest desired drug concentration. Thus, the amount (grams) of sample required (assuming an upper test concentration limit of 10^−4 M) is: molecular weight of compound×[…]. After a 48 hour incubation (37θC) with the test compound, the cells are fixed in situ to the bottoms of the microtitre wells by addition of 50 ul of either 50% trichloroacetic acid (for adherent cell lines) or 80% trichloroacetic acid (for settled cell suspension lines), followed by incubation for 60 minutes at 4θC. The cellular protein in each well is assayed using a sulforhodamine B (SRB) stain procedure. Briefly, after discarding the supernatants, the microtitre plates are washed 5 times with deionized water and air-dried. One hundred microliters of SRB solution (0.4% w/v in 1% acetic acid) is added to each microtitre well and incubated for 10 minutes at room temperature. Unbound SRB is removed by washing 5 times with 1 % acetic acid. The plates are air-dried, the bound stain is solubilized with Tris buffer, and the optical densities read at 515 nm. SRB is a bright pink anionic dye which, in dilute acetic acid, binds electrostatically to the basic amino acids of TCA-fixed cells. Cryopreserved master stocks of all the lines are maintained, and cultures used for screening are replaced from the master stock after no more than twenty passages in the screening laboratory. The cell line panel consists of 60 lines, organized into nine, disease-related subpanels including leukemia, non-small-cell lung cancer, colon, CNS, melanoma, ovarian, renal, prostate and breast cancers.
The response parameters G150 and LC50 are interpolated values representing the concentrations at which the percentage growth (PG) is +50 and −50, respectively:
GI50 is the concentration for which the PG=+50. At this value the increase from time tzero, in the number or mass of cells in the test well is only 50% as much as the corresponding increase in the control well during this period of the experiment, see Table II. A drug effect of this intensity is interpreted as primary growth inhibition.
TGI is the concentration for which PG=0. At this value the number or mass of cells in the well at the end of the experiment equals the number or mass of cells in the well at time tzero, see Table III. A drug effect of this intensity is regarded as cytostasis.
LC50 is the concentration for which the PG=−50. At this value, the number or mass of cells in the test well at the end of the experiment is half that at time tzero, see Table IV. This is interpreted as cytotoxicity.

[3] = system: NCI-H226; test: NCI 60 cell line screen (SRB), Non-Small Cell Lung Cancer; type: cell-based; conditions: for Log10TGI: PG=0
[4] = system: NCI-H322M; test: as above; type: cell-based; conditions: for Log10GI50: PG=+50
[5] = system: NCI-H522; test: as above; type: cell-based; conditions: for Log10TGI: PG=0
[6] = system: U251; test: NCI 60 cell line screen (SRB), CNS Cancer; type: cell-based; conditions: for Log10TGI: PG=0
[7] = system: UACC-257; test: NCI 60 cell line screen (SRB), Melanoma; type: cell-based; conditions: PG=0
[8] = system: RXF 393; test: NCI 60 cell line screen (SRB), Renal Cancer; type: cell-based; conditions: for Log10TGI: PG=0
[9] = system: PC-3; test: NCI 60 cell line screen (SRB), Prostate Cancer; type: cell-based; conditions: PG=0
[10] = system: MDA-MB231/ATCC; test: NCI 60 cell line screen (SRB), Breast Cancer; type: cell-based; conditions: MDA- (first line of MDA-MB231/ATCC); PG=0
[11] = system: NCI-H460; test: NCI 60 cell line screen (SRB), Non-Small Cell Lung Cancer; type: cell-based; conditions: PG=0
[12] = system: LOX IMVI; test: NCI 60 cell line screen (SRB), Melanoma; type: cell-based
[13] = system: CAKI-1; test: NCI 60 cell line screen (SRB), Renal Cancer; type: cell-based; conditions: Table IV (LC50, PG=−50)
[14] = system: DU-145; test: NCI 60 cell line screen (SRB), Prostate Cancer; type: cell-based
[15] = Table IV (LC50, PG=−50), MOLT−4

SMILES | Log10TGI [1] [log10M] | Log10GI50 ([1]; PG=+50) [log10M] | Log10GI50 ([1]; Table IV (LC50, PG=−50)) [log10M] | Log10GI50 ([2]; MOLT-4, PG=+50) [log10M] | Log10TGI ([2]; MOLT−4) [log10M] | Log10GI50 [2, 15] [log10M] | drug concentration for cytotoxicity (percentage growth −50) [2] | Log10TGI [3] [log10M] | Log10GI50 ([3]; Table IV (LC50, PG=−50)) [log10M] | Log10GI50 [4] [log10M] | Log10TGI [5] [log10M] | Log10GI50 ([5]; PG=+50) [log10M] | Log10GI50 ([5]; Table IV (LC50, PG=−50)) [log10M] | Log10TGI [6] [log10M] | Log10GI50 ([6]; PG=+50) [log10M] | Log10GI50 ([6]; Table IV (LC50, PG=−50)) [log10M] | Log10TGI [7] [log10M] | Log10TGI [8] [log10M] | Log10GI50 ([8]; PG=+50) [log10M] | Log10GI50 ([8]; Table IV (LC50, PG=−50)) [log10M] | other results
C[C@@H]1CC[C@H]2[C@@H](C)C(=O)O[C@@H]3O[C@]4(C)CC[C@@H]1[C@]32OO4 [Artemisinin, artemisinin] | −4.00 | −4.33 | >−4.00 | −4.73 | −4.00 | >−4.00 | greater than 10^−4 M | >−4.00 | >−4.00 | >−4.00 | >−4.00 | >−4.00 | >−4.00 | >−4.00 | >−4.00 | >−4.00 | >−4.00 | >−4.00 | −4.08 | >−4.00 | Log10GI50 ([3]; PG=+50): >−4.00 log10M; Log10TGI ([4]; PG=0): >−4.00 log10M; Log10TGI [9]: −4.00 log10M; Log10TGI [10]: −4.00 log10M
CC(=O)O[C@H]1C(=O)[C@@]2(C)[C@H]([C@H](OC(=O)c3ccccc3)[C@]3(O)C[C@H](OC(=O)[C@H](O)[C@@H](NC(=O)c4ccccc4)c4ccccc4)C(C)=C1C3(C)C)[C@]1(OC(C)=O)CO[C@@H]1C[C@@H]2O [Paclitaxel, paclitaxel, reference compound] | −10.83 | −10.83 | >−4.00 | −11.07 | −11.07 | >−4.00 | greater than 10^−4 M | −4.80 | −4.10 | −10.12 | −4.92 | <−13.00 | >−4.00 | −4.32 | −11.29 | −4.15 | −4.52 | >−4.00 | −8.32 | >−4.00 | Log10TGI [11]: −4.46 log10M; Log10TGI ([12]; PG=0): −4.65 log10M; Log10GI50 ([12]; PG=+50): −11.80 log10M; Log10GI50 ([12]; Table IV (LC50, PG=−50)): −4.15 log10M; Log10GI50 [13]: >−4.00 log10M; Log10TGI [9]: >−4.00 log10M; Log10TGI ([14]; PG=0): >−4.00 log10M; Log10GI50 ([14]; PG=+50): −9.38 log10M; Log10GI50 ([14]; Table IV (LC50, PG=−50)): >−4.00 log10M; Log10TGI [10]: −4.84 log10M
